Patent US6121244A, “Antitumoral method by administration of partricin derivatives” (Prospa B.V., priority 1997, dated 2000)
“Also recorded” adds a separate entry of the source. Like-named read-outs stand apart in the source and are kept apart here.

Assays:
[1] = tested on: murine WEHI-3B (D+) myelomonocytic leukemia cells; assay: Cytotoxicity by MTT microtiter test; type: cell-based; conditions: for dose dependence of toxic effect: linear regression
Description: A) Microtiter test (MTT) (Pessina et al. "In vitro short-term and long-term cytotoxicity of fluoroquinones on murine cell line", Ind. J.
The cultures were incubated for 7 days at 37° C. in air+5% CO2 and finally 20 μl of MTT at a conc. of 5 mg/ml in PBS were added to each well. After 3-h incubation at 37° C. the cultures were destroyed with 100 μl of a lytic buffer prepared with sodium dodecylsulfate/dimethylforma-mide/acetic acid/HCl. After further overnight incubation, the optical density (OD) at 620 nm was determined with a microplate LP200 detector. The O.D. of the wells with no cells was considered as 0% proliferation. The O.D. of the wells with growing cells in drug-free medium was considered as 100% proliferation.

[2] = mice, i.v.; cited from earlier work
[3] = tested on: murine WEHI-3B (D+) myelomonocytic leukemia cells; conditions: clonogenic test; amphotericin B vs SPA-S-843; FIG. 4
Description: Substances: SPA-S-843 and amphotericin B were dissolved in sterile bidistilled water to a concentration of 2000 μg/ml. The working solutions were prepared in McCoy medium supplemented with penicillin+streptomycin (100 U/ml +100 μg/ml) at the concentrations of from 200 μg/ml to 1.56 μg/ml by subsequent serial 1:2 dilutions.
The murine WEHI-3B (D+) myelomonocytic leukemia cells were maintained through subcultures in 25-cm^2 plastic bottles in McCoy medium (Seromed, Germany) containing 5% FCS (Gibco, USA).
Cell sensitivity to the toxic action of SPA-S-843 in comparison with that of amphotericin B, taken as reference substance, was determined by two different methods:
Acta, 1013, 206-11, 1989).
The clonogenic capacity of WEHI-3B(D+) cells was tested by culturing 300 cells in 0.3 ml of complete enriched medium [McCoy +10% FCS, 10 mM sodium pyruvate, 4% NEAA (10×), 4% Mem Vit (100×)]+0.3% agar in 35 mm Petri plates.
SPA-S-843 and amphotericin B (100 μl) had previously been added to the Petri plates at serial concentrations of from 25 to 0.19 μg/ml. The control plates contained 100 μl of culture medium. The colonies were counted after 7 days of incubation at 37° C. in an atmosphere of air+5% CO2.

erythrocytes = conditions: cited from earlier work; for total hemolytic conc. (THC): erythrocytes
[4] = tested on: thyroid medullary carcinoma (TMC) cells; assay: Cytotoxicity test (MTT) of cisplatin after pre-treatment with SPA-S-843; type: cell-based
Water solubility = type: physicochemical; conditions: as salts, in particular diascorbate
[5] = tested on: carcino-embryonic antigen (CEA); assay: Carcino-embryonic antigen (CEA) in a patient under chemotherapy, CEA-RIA; type: in vivo, human (patient)

Structure (SMILES)	dose dependence of toxic effect ([1]; FIG. 1)	LD50 [2]	IC10 [3]	IC50 [3]	IC90 [3]	total hemolytic conc. (THC) (erythrocytes)	cytotoxicity on WEHI-3B(D+) cells, compared with amphotericin B ([1]; 7 days, FIG. 1)	IC10 ([1]; vs amphotericin B, FIG. 2)	IC50 ([1]; vs amphotericin B, FIG. 2)	IC90 ([1]; vs amphotericin B, FIG. 2)	potentiation of cisplatin cytotoxicity ([4]; incubation with SPA-S-843 (2 μg/ml))	effect on resistance of TMC cells to cisplatin ([4]; pre-treatment with SPA-S-843 (2 μg/ml))	water solubility (Water solubility)	CEA after phase B ([5]; SPA-S-843 50 mg i.v. combined with 5-fluorouracil (500 mg) and folinic acid (250 mg), 3 weeks later)	sensitivity to usual chemotherapeutic agents in combination with the polyene ([5]; combination with SPA-S-843, one patient)	concentration at which lytic activity on erythrocytes appears (erythrocytes; of the order of)
C[C@@H]1[C@H](O)[C@@H](C)/C=C/C=C/C=C/C=C/C=C/C=C/C=C/[C@H](O[C@@H]2O[C@H](C)[C@@H](O)[C@H](N)[C@@H]2O)C[C@@H]2O[C@](O)(C[C@@H](O)C[C@@H](O)[C@H](O)CC[C@@H](O)C[C@@H](O)CC(=O)O[C@H]1C)C[C@H](O)[C@H]2C(=O)O [amphotericin B]	dose-related kinetics	4.77 mg/kg	significantly higher	significantly higher	significantly higher	2 µg/mL										
CNc1ccc(C(=O)CC(O)CCC(C)C2OC(=O)CC(O)CC(=O)CC(O)CC(O)CC(O)CC(O)CC3(O)CC(O)C(C(=O)NCCN(C)C)C(CC(OC4OC(C)C(O)C(NC(=O)CN(C)C)C4O)C=CC=CC=CC=CC=CC=CC=CC2C)O3)cc1 (stereo not drawn) [SPA-S-843 free base, N-dimethylamino-acetyl-partricin A 2-dimethylaminoethylamide]						> 18 µg/mL										
CNc1ccc(C(=O)CC(O)CCC(C)C2OC(=O)CC(O)CC(=O)CC(O)CC(O)CC(O)CC(O)CC3(O)CC(O)C(C(=O)NCCN(C)C)C(CC(OC4OC(C)C(O)C(NC(=O)CN(C)C)C4O)C=CC=CC=CC=CC=CC=CC=CC2C)O3)cc1 (stereo not drawn) [SPA-S-843, N-dimethylamino-acetyl-partricin A 2-dimethylaminoethylamide]	dose-related kinetics						substantially higher; also recorded: more sensitive to SPA-S-843 than to amphotericin B	significantly lower	significantly lower	significantly lower	able to potentiate cisplatin cytotoxicity against resistant cells up to the level of naturally sensitive cells; also recorded: cytotoxic for all TMC cells	substantially counteracted	water soluble	65 ng/mL	re-established the sensitivity	≥ 18 µg/mL
